Assays:
human recombinant SIRT1 = molecular target: T1, human recombinant SIRT1 (Homo sapiens, UniProt Q96EB6); assay: SIRT1 inhibition, Fluor de Lys fluorescence-based assay; assay type: biochemical; details: ratio of IC50 values versus 1
T1 sequence (Q96EB6 1-747): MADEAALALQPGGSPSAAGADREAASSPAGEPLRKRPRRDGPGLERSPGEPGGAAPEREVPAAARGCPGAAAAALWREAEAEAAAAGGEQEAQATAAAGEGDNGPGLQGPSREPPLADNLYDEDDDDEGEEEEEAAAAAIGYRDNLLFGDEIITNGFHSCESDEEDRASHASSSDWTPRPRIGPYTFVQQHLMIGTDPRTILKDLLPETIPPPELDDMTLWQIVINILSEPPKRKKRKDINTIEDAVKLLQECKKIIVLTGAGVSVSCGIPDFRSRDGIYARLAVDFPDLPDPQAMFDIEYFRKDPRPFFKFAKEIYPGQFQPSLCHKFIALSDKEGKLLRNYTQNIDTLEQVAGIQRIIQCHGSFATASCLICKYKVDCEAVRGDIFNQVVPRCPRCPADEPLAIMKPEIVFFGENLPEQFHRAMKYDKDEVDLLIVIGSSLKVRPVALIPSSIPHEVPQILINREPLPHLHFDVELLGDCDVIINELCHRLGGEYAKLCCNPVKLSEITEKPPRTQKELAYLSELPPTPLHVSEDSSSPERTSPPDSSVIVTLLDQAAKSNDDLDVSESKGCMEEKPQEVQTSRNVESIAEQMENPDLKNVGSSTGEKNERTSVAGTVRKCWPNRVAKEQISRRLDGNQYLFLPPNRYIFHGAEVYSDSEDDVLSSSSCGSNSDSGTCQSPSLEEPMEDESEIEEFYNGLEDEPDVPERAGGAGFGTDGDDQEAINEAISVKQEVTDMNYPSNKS

[1] = test system: MCF-7 breast adenocarcinoma cells; assay: Western blot of p53 and K382-acetylated p53 levels in MCF-7 cells; assay type: cell-based, human
H1299 cells = assay: Western blot of K40-acetylated α-tubulin levels in H1299 cells; assay type: cell-based, human
SIRT2 = details: read-out: SIRT2 IC50 (previously reported); in vitro; cited from earlier work
SIRT1 = details: read-out: SIRT1 IC50 (previously reported); in vitro; cited from earlier work
NCI H460 cancer cells = details: in the presence of etoposide (10 μM); cited from earlier work

O=c1[nH]c(=S)[nH]c(-c2ccc(Br)cc2)c1Cc1c(O)ccc2ccccc12 [6b, 6-(4′-Bromophenyl)-5-[2″-hydroxynaphthyl-(1″)-methyl]-2-thioxo-2,3-dihydro-1H-pyrimidin-4-one]
improvement in activity (IC50) against SIRT1 compared to 1 (human recombinant SIRT1): 3 fold | levels of p53 ([1]; MCF-7, compound alone, in the absence of etoposide, different concentrations): did not increase the levels of p53 | levels of acetylated α-tubulin (H1299 cells; Figure S13, cell line not given): did not lead to an increase in the levels of acetylated α-tubulin

CCCCn1c(-c2ccccc2)c(Cc2c(O)ccc3ccccc23)c(=O)[nH]c1=S [6j, 6-Phenyl-5-[2″-hydroxynaphthalyl-(1″)-methyl]-1-butyl-2-thioxo-2,3-dihydro-1H-pyrimidin-4-one]
levels of acetylated α-tubulin compared to the effect of 1 (H1299 cells; H1299 cells, with trichostatin A, concentration range 10–50 μM): an increase in the levels of acetylated α-tubulin was achieved | toxicity in cells (H1299 cells; concentrations higher than 10–50 μM): toxicity

O=c1[nH]c(=S)[nH]c(-c2ccccc2)c1Cc1c(O)ccc2ccccc12 [compound 1, 6-Phenyl-5-[2″-hydroxynaphthyl-(1″)-methyl]-2-thioxo-2,3-dihydro-1H-pyrimidin-4-one]
IC50 (SIRT2): 59 µM | IC50 (SIRT1): 56 µM | levels of p53 and acetylated p53 (NCI H460 cancer cells): increased levels of p53 and acetylated p53 | levels of p53 and acetylated p53 ([1]; MCF-7, in the presence of etoposide (10 μM), 200 μM compound): decreased again | levels of p53 and Lys382 acetylated p53 ([1]; MCF-7, in the presence of etoposide (10 μM), 20 and 50 μM compound, 6 h): increased | levels of acetylated α-tubulin (H1299 cells; H1299 cells, with 40 nM trichostatin A, 24 h): did lead to an increase in levels of acetylated tubulin

From paper PMC2691587 (Journal of medicinal chemistry, 2009)
